According to patent publication US20200121812A1 (Teva Pharmaceuticals International GmbH, priority 2015, published 2020):

Experiments:
6-OHDA lesioned rats = settings: cited from earlier work; for effectiveness on motor performance compared to L-DOPA: as disclosed in WO2014/122184A1
[1] = cited from earlier work
dopamine in the striatum = test: Microdialysis in Sprague-Dawley rats; type: in vivo
[2] = test system: striatum (extracellular L-DOPA, DA and metabolites); test: Microdialysis in Wistar Rats (striatal dialysate levels after COMTi pretreatment); type: in vivo; settings: COMTi 30 mg/kg p.o. 2 hours before SD-1077/Carbidopa 50/25 mg/kg p.o.; FIG. 4
[3] = test system: advanced PD patients with motor fluctuations; test: Clinical trial of opicapone add on to deuterated levodopa/carbidopa; type: in vivo, human; settings: add on opicapone 20 mg once daily, 12 weeks; expected
[4] = cited from earlier work; remark: listed apart in the source
Parkinson models = settings: cited from earlier work
striatal dopamine = settings: cited from earlier work; for increase and prolongation of the output of striatal dopamine: WO2004/056724 and WO2007/093450
[5] = plus carbidopa, compared to conventional levodopa plus carbidopa
[6] = opicapone before levodopa (sequential dosing) compared to concomitant administration, US2014/0045900A1

For “L-2-amino-2,3,3*-trideutero-3-(3,4-dihydroxyphenyl) propionic acid [Composition 1]”, the “effectiveness on motor performance compared to L-DOPA” value (from here on “effectiveness … compared to L-DOPA”) (6-OHDA lesioned rats) is given as “as effective as L-DOPA at lower doses”, the “observed dyskinesia side effects relative to levodopa” value (6-OHDA lesioned rats; rat model of Parkinson's disease, at equivalent motor effect, WO2014/122184A1) is given as 50% and the “dose yielding equivalent motor effect to levodopa, as % of the levodopa dose” value (6-OHDA lesioned rats; rat model of Parkinson's disease, WO2014/122184A1) is given as 35%.

For `N[C@@H](Cc1ccc(O)c(O)c1)C(=O)O` [levodopa], the half life ([1]; in vivo) is given as “about 1.5 hours”, the “share of an oral dose that reaches the brain” value ([1]; oral) is given as 1% and the “dopamine in the extracellular space in the striatal brain tissue” value (dopamine in the striatum; plus carbidopa) is given as “increase”.

In the case of `[2H]C([2H])(c1ccc(O)c(O)c1)[C@]([2H])(N)C(=O)O` [Deulevodopa], the central bioavailability (dopamine in the striatum; [5]) is reported as “increased” and the “half life of dopamine” value (dopamine in the striatum; [5]) is reported as “about doubled”.

With `[2H]C([2H])(c1ccc(O)c(O)c1)[C@]([2H])(N)C(=O)O` [d3-L-DOPA] the “bioavailability of d3-dopamine in the striatum” value (dopamine in the striatum; 50 mg/kg ip, rats, compared to conventional L-DOPA (50 mg/kg ip), FIG. 1) was “significantly increased”.

In the case of `Cc1c(Cl)c(C)[n+]([O-])c(Cl)c1-c1noc(-c2cc(O)c(O)c([N+](=O)[O-])c2)n1` [opicapone, 2,5-dichloro-3-[5-(3,4-dihydroxy-5-nitrophenyl]-1,2,4-oxadiazol-3-yl)-4,6-dimethylpyridine 1-oxide], the “extracellular striatal levels of deuterated L-DOPA (SD-1077)” value [2] is given as “more effective than entacapone”, the “increase of ON time without dyskinesia compared to placebo” value [3] is given as “about 40 min” and the levodopa exposure ([4]; Parkinson's patients) is given as “increase levodopa exposure in a dose-dependent manner”. For the same compound, the motor outcomes ([4]; Parkinson's patients) was “improve”, the “food effect on rate and extent of absorption” value ([4]; US2014/0045900A1) was “marked food effect” and the “levodopa Cmax” value [4, 6] was “decrease”. For the same compound, the levodopa systemic exposure [4, 6] was “increase”.

In the case of `Cc1ccc(C(=O)c2cc(O)c(O)c([N+](=O)[O-])c2)cc1` [tolcapone], the hepatotoxicity ([4]; after market launch) is listed as “several cases of hepatotoxicity” and the “crossing of the BBB” value ([4]; in vivo) is listed as “crosses the BBB”.

For `[2H]C([2H])(c1ccc(O)c(O)c1)[C@]([2H])(N)C(=O)O` [α,β,β-D3-L-DOPA, L-2-Amino-2,3,3-trideutero-3-(3,4-dihydroxyphenyl) propionic acid], the “effectiveness … compared to L-DOPA” value (6-OHDA lesioned rats) is listed as “as effective as L-DOPA at lower doses”, the “equi-effective dose compared to L-DOPA” value (Parkinson models; in vivo) is listed as “about 60%” and the “motor activity compared to L-DOPA” value (Parkinson models; several Parkinson models, Malmlof et al.) is listed as “improved”. The “increase and prolongation of the output of striatal dopamine” value (striatal dopamine) was “significantly more than L-DOPA” and the “striatal dopamine levels compared to L-DOPA” value (striatal dopamine; in vivo) was “higher longer-lasting”.

In the case of `[2H][C@@H](c1ccc(O)c(O)c1)[C@]([2H])(N)C(=O)O` [α,β-D2-L-DOPA, S/S-2-amino-2,3-dideutero-3-(3,4-dihydroxyphenyl) propionic acid], the “effectiveness … compared to L-DOPA” value (6-OHDA lesioned rats) is listed as “as effective as L-DOPA at lower doses”, the “increase and prolongation of the output of striatal dopamine” value (striatal dopamine) is listed as “significantly more than L-DOPA” and the striatal dopamine concentrations (striatal dopamine; compared with L-DOPA and α,β,β-D3-L-DOPA) is listed as “highest”.
